One block for each compound: values may come before it.
Experiments:
Toxoplasma gondii = test: Inhibitory activity against cultured Toxoplasma gondii; type: functional, organism-based
Dihydrofolate reductase [1] = biological target: T1, Dihydrofolate reductase (Pneumocystis carinii, UniProt P16184)
T1 sequence (P16184 whole entry): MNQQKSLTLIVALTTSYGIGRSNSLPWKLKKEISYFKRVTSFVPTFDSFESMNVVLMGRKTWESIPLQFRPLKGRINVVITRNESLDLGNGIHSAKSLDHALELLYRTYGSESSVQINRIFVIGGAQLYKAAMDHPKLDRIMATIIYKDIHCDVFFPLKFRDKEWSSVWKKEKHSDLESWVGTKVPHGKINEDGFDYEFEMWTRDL
Description: Inhibitory activity against Dihydrofolate reductase from Pneumocystis carinii

Dihydrofolate reductase [2] = biological target: T2, Dihydrofolate reductase (Rattus norvegicus, UniProt Q920D2)
T2 sequence (Q920D2 whole entry): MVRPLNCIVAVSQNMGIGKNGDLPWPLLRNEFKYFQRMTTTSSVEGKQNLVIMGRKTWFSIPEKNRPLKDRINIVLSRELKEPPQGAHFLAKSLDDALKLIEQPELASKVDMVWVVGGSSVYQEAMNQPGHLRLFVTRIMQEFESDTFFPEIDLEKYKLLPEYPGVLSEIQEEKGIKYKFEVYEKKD
Description: Inhibitory activity against Dihydrofolate reductase from rat liver

[3] = Ratio of the inhibitory concentrations against Toxoplasma gondii […] and Toxoplasma gondii DHFR.
[4] = biological target: T3, Bifunctional dihydrofolate reductase-thymidylate synthase (Toxoplasma gondii, UniProt Q07422)
T3 sequence (Q07422 whole entry): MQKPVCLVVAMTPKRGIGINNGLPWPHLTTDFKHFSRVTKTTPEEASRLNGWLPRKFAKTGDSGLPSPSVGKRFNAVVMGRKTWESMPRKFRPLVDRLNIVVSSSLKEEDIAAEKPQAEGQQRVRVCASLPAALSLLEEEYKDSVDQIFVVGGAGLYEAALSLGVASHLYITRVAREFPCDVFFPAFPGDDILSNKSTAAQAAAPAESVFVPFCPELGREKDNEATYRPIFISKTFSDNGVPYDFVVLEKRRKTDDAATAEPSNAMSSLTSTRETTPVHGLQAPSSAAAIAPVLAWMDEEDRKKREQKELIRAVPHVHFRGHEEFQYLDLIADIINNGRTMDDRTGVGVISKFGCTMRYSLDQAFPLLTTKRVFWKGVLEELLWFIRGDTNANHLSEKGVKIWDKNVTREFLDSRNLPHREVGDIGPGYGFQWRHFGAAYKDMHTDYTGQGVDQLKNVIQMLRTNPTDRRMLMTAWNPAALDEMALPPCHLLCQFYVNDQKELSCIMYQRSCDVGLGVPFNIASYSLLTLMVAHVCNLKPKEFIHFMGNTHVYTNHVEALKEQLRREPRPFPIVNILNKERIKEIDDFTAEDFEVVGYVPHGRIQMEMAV
Description: Inhibitory activity against Dihydrofolate reductase from Toxoplasma gondii

Dihydrofolate reductase [5] = biological target: Dihydrofolate reductase (Lactobacillus casei, UniProt P00381)
Description: Inhibitory activity against Dihydrofolate reductase from Lactobacillus casei

MDA-MB-435 = test: Cytotoxic activity against MDA-MB-435 Breast cancer cell line; type: functional; details: Homo sapiens
K562 = test: Cytotoxic activity against K-562 Leukemia cell line; type: functional; details: Homo sapiens
IGROV-1 = test: Cytotoxic activity against IGROV1 Ovarian cancer cell line; type: functional; details: Homo sapiens
CCRF-CEM = test: Cytotoxic activity against CCRF-CEM Leukemia cell line; type: functional; details: Homo sapiens
A549 = test: Cytotoxic activity against A549/ATCC non-small cell-lung cancer cell line; type: functional; details: Homo sapiens
MDA-MB-231 = test: Cytotoxic activity against MDA-MB-231/ATCC Breast cancer cell line; type: functional; details: Homo sapiens
MOLT-4 = test: Cytotoxic activity against MOLT-4 Leukemia cell line; type: functional; details: Homo sapiens
UACC-257 = test: Cytotoxic activity against UACC-257 Melanoma cell line; type: functional; details: Homo sapiens
U-251 = test: Cytotoxic activity against U251 CNS cancer cell line; type: functional; details: Homo sapiens
SR = test: Cytotoxic activity against SR Leukemia cell line; type: functional; details: Homo sapiens
HCT-116 = test: Cytotoxic activity against HCT116 colon cancer cell line; type: functional; details: Homo sapiens
MDA-N = test: Cytotoxic activity against MDA-N Breast cancer cell line; type: functional; details: Homo sapiens
SF-295 = test: Cytotoxic activity against SF-295 CNS cancer cell line; type: functional; details: Homo sapiens
PC-3 = test: Cytotoxic activity against PC-3 Prostate cancer cell line; type: functional; details: Homo sapiens
UACC-62 = test: Cytotoxic activity against UACC-62 Melanoma cell line; type: functional; details: Homo sapiens
SW-620 = test: Cytotoxic activity against SW-620 colon cancer cell line; type: functional; details: Homo sapiens
786-0 = test: Cytotoxic activity against 786-0 Renal cancer cell line; type: functional; details: Homo sapiens
DU-145 = test: Cytotoxic activity against DU-145 Prostate cancer cell line; type: functional; details: Homo sapiens
HT-29 = test: Cytotoxic activity against HT-29 colon cancer cell line; type: functional; details: Homo sapiens
NCI-H460 = test: Cytotoxic activity against NCI-H460 non-small cell-lung cancer cell line; type: functional; details: Homo sapiens
HCT-15 = test: Cytotoxic activity against HCT-15 colon cancer cell line; type: functional; details: Homo sapiens
LOX IMVI = test: Cytotoxic activity against LOXIMVI Melanoma cell line; type: functional; details: Homo sapiens
SF-268 = test: Cytotoxic activity against SF-268 CNS canser cell line; type: functional; details: Homo sapiens
SK-MEL-5 = test: Cytotoxic activity against SK-MEL-5 Melanoma cell line; type: functional; details: Homo sapiens
ACHN = test: Cytotoxic activity against ACHN Renal cancer cell line; type: functional; details: Homo sapiens

Dihydrofolate reductase (Lactobacillus casei, UniProt P00381), sequence (P00381 whole entry): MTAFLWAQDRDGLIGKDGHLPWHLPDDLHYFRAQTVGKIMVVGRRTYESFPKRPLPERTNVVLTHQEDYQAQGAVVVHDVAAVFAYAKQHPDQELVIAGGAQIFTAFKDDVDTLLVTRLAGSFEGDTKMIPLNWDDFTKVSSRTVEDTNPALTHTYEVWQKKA

Structure (SMILES): Cc1c(CNc2cccc3ccccc23)cnc2nc(N)nc(N)c12
IC50 (Toxoplasma gondii): 100 nM | IC50 (Dihydrofolate reductase [1]): 573 nM | IC50 (Dihydrofolate reductase [2]): 29.6 nM | Ratio [3]: 7 | IC50 [4]: 14.5 nM

Structure (SMILES): COc1cc(NCc2cnc3nc(N)nc(N)c3c2C)cc(OC)c1
IC50 (Toxoplasma gondii): 600 nM | IC50 (Dihydrofolate reductase [1]): 22.9 nM | IC50 (Dihydrofolate reductase [2]): 42.5 nM | Ratio [3]: 125 | IC50 [4]: 4.8 nM

Structure (SMILES): COc1ccc(OC)c(NCc2cnc3nc(N)nc(N)c3c2C)c1
IC50 (Toxoplasma gondii): 1500 nM | IC50 (Dihydrofolate reductase [1]): 46 nM | IC50 (Dihydrofolate reductase [5]): 39 nM | IC50 (Dihydrofolate reductase [2]): 128 nM | Ratio [3]: 94 | IC50 [4]: 16 nM

Structure (SMILES): COc1ccc(N(C)Cc2cnc3nc(N)nc(N)c3c2C)c(OC)c1
IC50 (Toxoplasma gondii): 1730 nM | IC50 (Dihydrofolate reductase [1]): 510 nM | IC50 (Dihydrofolate reductase [2]): 330 nM | Ratio [3]: 46 | IC50 [4]: 38 nM

IC50 (Dihydrofolate reductase [1]): 49.7 nM | IC50 (Dihydrofolate reductase [2]): 10.5 nM
Structure (SMILES): CCN(Cc1cnc2nc(N)nc(N)c2c1C)c1cc(OC)c(OC)c(OC)c1
IC50 [4]: 7.7 nM

Structure (SMILES): COc1cc(OC)cc(N(C)Cc2cnc3nc(N)nc(N)c3c2C)c1
GI50 (MDA-MB-435): 6930 nM | GI50 (K562): 209 nM | IC50 (Dihydrofolate reductase [1]): 130 nM | GI50 (IGROV-1): 956 nM | GI50 (CCRF-CEM): 536 nM | GI50 (A549): 442 nM | GI50 (MDA-MB-231): 9220 nM | GI50 (MOLT-4): 742 nM | GI50 (UACC-257): 620 nM | GI50 (U-251): 529 nM | GI50 (SR): 541 nM | GI50 (HCT-116): 410 nM | GI50 (MDA-N): 527 nM | GI50 (SF-295): 5150 nM | GI50 (PC-3): 594 nM | GI50 (UACC-62): 628 nM | GI50 (SW-620): 5500 nM | GI50 (786-0): 630 nM | IC50 (Dihydrofolate reductase [2]): 170 nM | GI50 (DU-145): 4360 nM | GI50 (HT-29): 5840 nM | GI50 (NCI-H460): 544 nM | GI50 (HCT-15): 2120 nM | GI50 (LOX IMVI): 1990 nM | GI50 (SF-268): 717 nM | GI50 (SK-MEL-5): 596 nM | IC50 [4]: 58 nM | GI50 (ACHN): 816 nM

IC50 (Dihydrofolate reductase [1]): 320 nM | IC50 (Dihydrofolate reductase [2]): 44 nM
Structure (SMILES): COc1ccc(N(C)Cc2cnc3nc(N)nc(N)c3c2C)cc1OC
IC50 [4]: 29 nM

Structure (SMILES): COc1cc(N(C)Cc2cnc3nc(N)nc(N)c3c2C)cc(OC)c1OC
IC50 (Toxoplasma gondii): 4700 nM
